Source: ChEMBL document CHEMBL4706734, “Novel Hexahydropyrimidine Compounds for Treating Malaria” (ACS Med Chem Lett, 2021)

System: Plasmodium falciparum
Assay: Antimalarial activity against asexual blood stage of Plasmodium falciparum 3D7 infected in human erythrocytes assessed as inhibition of parasite growth and propagation incubated for 72 hrs by SYBR green dye based fluorescence assay
Assay type: functional, organism-based
Conditions: 3D7, Erythrocyte

Compound | IC50 [nM]
C[C@@H]1C[C@H](N2C(=N)N[C@](C)(c3cccc(NC(=O)c4cc(C#N)cn4C)c3Cl)CC2=O)CCO1 | 5
C[C@@H]1C[C@H](N2C(=N)N[C@](C)(c3cccc(NC(=O)c4cccc(C#N)c4F)c3Cl)CC2=O)CCO1 | 6
C[C@@H]1C[C@H](N2C(=N)N[C@](C)(c3cccc(NC(=O)c4cccc(Cl)c4)c3Cl)CC2=O)CCO1 | 9
C[C@@H]1C[C@H](N2C(=N)N[C@](C)(c3cccc(NC(=O)c4cc(Cl)cc(C#N)c4)c3Cl)CC2=O)CCO1 | 7
Cc1cc(Cl)cc(C(=O)Nc2cccc([C@]3(C)CC(=O)N([C@@H]4CCO[C@H](C)C4)C(=N)N3)c2Cl)c1 | 9
C[C@@H]1C[C@H](N2C(=N)N[C@](C)(c3cccc(NC(=O)c4cccc(C#N)c4)c3Cl)CC2=O)CCO1 | 8
